Experimental data taken from patent publication US20090012079A1, “Triazolopyridine Compounds” (priority 2006, published 2009).

test system: TNFα release from human peripheral blood mononuclear cells; experiment: TNFα screen: inhibition of LPS-stimulated TNFα release from human peripheral blood mononuclear cells (ELISA); assay type: cell-based; conditions: human PBMC, LPS stimulation, 18 hours incubation, TNFα in supernatant by ELISA; read-out: TNF IC50
Procedure: Venous blood is collected from healthy volunteers and the mononuclear cells purified by centrifugation through Histopaque (Ficoll) cushions. TNFα production from these cells is stimulated by addition of lipopolysaccharide. After 18 hours incubation in the presence of LPS, the cell supernatant is removed and the concentration of TNFα in the supernatant determined by ELISA. Addition of the compounds of the invention reduces the amount of TNFα produced. An IC50 is determined which is equal to the concentration of compound that gives 50% inhibition of TNFα production as compared to the LPS stimulated control wells.

`CC(C)(C)c1cc(NC(=O)NCc2ccccc2Sc2ccc3nnc(-c4cccc(OCCN5CCOCC5)c4)n3c2)n(-c2ccc(Cl)c(O)c2)n1` [Example 10, 1-[5-tert-Butyl-2-(4-chloro-3-hydroxyphenyl)-2H-pyrazol-3-yl]-3-(2-{3-[3-(2-morpholin-4-yl-ethoxy)phenyl]-[1,2,4]triazolo[4,3-a]pyridin-6-ylsulfanyl}benzyl)urea] was tested. Which IC50 did it give?
The IC50 was 4.3 nM.

For `CC(C)(C)c1cc(NC(=O)NCc2ccccc2Sc2ccc3nnc(-c4ccc(CN5CCOCC5)cc4)n3c2)n(-c2ccc(O)c(Cl)c2)n1` [Example 8, 1-[5-tert-Butyl-2-(3-chloro-4-hydroxyphenyl)-2H-pyrazol-3-yl]-3-{2-[3-(4-morpholin-4-ylmethylphenyl)-[1,2,4]triazolo[4,3-a]pyridin-6-ylsulfanyl]benzyl}urea], which IC50 is on record?
The IC50 was 5.5 nM.

Which IC50 does the source give for `CC(C)(C)c1cc(NC(=O)NCc2ccccc2Sc2ccc3nnc(-c4cccc(OCCN5CCOCC5)c4)n3c2)n(-c2ccc(O)c(Cl)c2)n1` [Example 9, 1-[5-tert-Butyl-2-(3-chloro-4-hydroxyphenyl)-2H-pyrazol-3-yl]-3-(2-{3-[3-(2-morpholin-4-ylethoxy)phenyl]-[1,2,4]triazolo[4,3-a]pyridin-6-ylsulfanyl}benzyl)urea] here?
Its IC50 is 5.6 nM.

With `CN(C)Cc1cccc(-n2nc(C(C)(C)C)cc2NC(=O)NCc2ccccc2Sc2ccc3nnc(-c4cc(O)ccc4Cl)n3c2)c1` [Example 4, 1-[5-tert-Butyl-2-(3-dimethylaminomethylphenyl)-2H-pyrazol-3-yl]-3-{2-[3-(2-chloro-5-hydroxy-phenyl)-[1,2,4]triazolo[4,3-a]pyridin-6-ylsulfanyl]benzyl}urea] as the compound, how does the IC50 read?
The IC50 was 8.2 nM.

Which IC50 does the source give for `CSCC(C)(C)c1cc(NC(=O)NCc2ccccc2Sc2ccc3nnc(-c4cc(Cl)ccc4O)n3c2)n(-c2cccc(CN(C)C)c2)n1` [Example 11, 1-{2-[3-(5-Chloro-2-hydroxy-phenyl)-[1,2,4]triazolo[4,3-a]pyridin-6-ylsulfanyl]benzyl}-3-[2-(3-dimethylaminomethyl-phenyl)-5-(1,1-dimethyl-2-methylsulfanylethyl)-2H-pyrazol-3-yl]urea] here?
Its IC50 is 4.9 nM.

Which IC50 does the source give for `CC(C)(C)c1cc(NC(=O)NCc2ccccc2Sc2ccc3nnc(-c4cc(Cl)ccc4O)n3c2)n(-c2cccc(CN3CCOCC3)c2)n1` [Example 5, 1-[5-tert-Butyl-2-(3-morpholin-4-ylmethylphenyl)-2H-pyrazol-3-yl]-3-{2-[3-(5-chloro-2-hydroxyphenyl)-[1,2,4]triazolo[4,3-a]pyridin-6-ylsulfanyl]benzyl}urea] here?
The IC50 was 2.5 nM.

For `CC(C)(C)c1cc(NC(=O)NCc2ccccc2Sc2ccc3nnc(-c4cc(O)ccc4Cl)n3c2)n(-c2cccc(CN3CCOCC3)c2)n1` [Example 6, 1-[5-tert-Butyl-2-(3-morpholin-4-ylmethylphenyl)-2H-pyrazol-3-yl]-3-{2-[3-(2-chloro-5-hydroxyphenyl)-[1,2,4]triazolo[4,3-a]pyridin-6-ylsulfanyl]benzyl}urea], which IC50 is on record?
The IC50 was 1.8 nM.

`CN(C)CCOc1cccc(-n2nc(C(C)(C)C)cc2NC(=O)NCc2ccccc2Sc2ccc3nnc(-c4cc(Cl)ccc4O)n3c2)c1` [Example 1, 1-{5-tert-Butyl-2-[3-(2-dimethylaminoethoxy)phenyl]-2H-pyrazol-3-yl}-3-{2-[3-(5-chloro-2-hydroxyphenyl)-[1,2,4]triazolo[4,3-a]pyridin-6-ylsulfanyl]benzyl}urea] was tested. Which IC50 did it give?
The IC50 was 5.6 nM.

How did the IC50 turn out when `CSCC(C)(C)c1cc(NC(=O)NCc2ccccc2Sc2ccc3nnc(-c4cc(O)ccc4Cl)n3c2)n(-c2cccc(CN(C)C)c2)n1` [Example 2, 1-{2-[3-(2-Chloro-5-hydroxy-phenyl)-[1,2,4]triazolo[4,3-a]pyridin-6-ylsulfanyl]benzyl}-3-[2-(3-dimethylaminomethyl-phenyl)-5-(1,1-dimethyl-2-methylsulfanylethyl)-2H-pyrazol-3-yl]urea] was run?
The IC50 was 2.9 nM.

With `CC(C)(C)c1cc(NC(=O)NCc2ccccc2Sc2ccc3nnc(-c4ccc(CN5CCOCC5)cc4)n3c2)n(-c2ccc(Cl)c(O)c2)n1` [Example 7, 1-[5-tert-Butyl-2-(4-chloro-3-hydroxyphenyl)-2H-pyrazol-3-yl]-3-{2-[3-(4-morpholin-4-ylmethylphenyl)-[1,2,4]triazolo[4,3-a]pyridin-6-ylsulfanyl]benzyl}urea] as the compound, how does the IC50 read?
The IC50 was 3 nM.

How did the IC50 turn out when `CN(C)Cc1cccc(-n2nc(C(C)(C)C)cc2NC(=O)NCc2ccccc2Sc2ccc3nnc(-c4cc(Cl)ccc4O)n3c2)c1` [Example 3, 1-[5-tert-Butyl-2-(3-dimethylaminomethylphenyl)-2H-pyrazol-3-yl]-3-(2-[3-(5-chloro-2-hydroxyphenyl)-[1,2,4]triazolo[4,3-a]pyridin-6-ylsulfanyl]benzyl)urea] was run?
Its IC50 is 4 nM.
